Data published in patent US20120225852A1, “USE OF STEROID COMPOUNDS” (priority 2009, published 2012).

How the values were obtained:
Naive CD4+ T cells = Naive CD4+ T cells under Th17 cell polarizing conditions; format: cell-based; details: for number of CD4+ IL-10-secreting T cells: among Th17 differentiating cells, 4 days, FIG. 37; for number of CD4+ IL-17-secreting T cells: and rIL-6, 4 days, vs RPMI, FIG. 36
[1] = tested on: Lymph node (LN) cells from unprimed DO11.10 TCR Tg mice; assay: OVA-stimulated lymph node cell culture, T cell proliferation; format: cell-based; details: for proliferation of the T cells that respond to the antigen: LN cells stimulated with OVA, vs control RPMI, FIG. 1; for effect on T cell responses in general: overall conclusion of Example 1 (FIGS. 1-4)
naïve CD4+ T cells = assay: Naive CD4+ T cells under Treg cell generating conditions; format: cell-based; details: for proliferation: Treg cell generating conditions, 5 days, FIG. 39; for number of Foxp3+ Treg cells: rIL-2, with or even without rTGF-β1, 5 days, FIG. 38
[2] = tested on: ongoing EAE in recipient mice; assay: Adoptive transfer of DLN cells from treated EAE donors into recipients with ongoing EAE; format: in vivo
From the text: The donor DLN cells were obtained on day 17, which is the peak of disease for control mice. This protection was observed until day 28-30 when the mice were euthanized.

[3] = tested on: response to OVA in EAE-induced mice; assay: EAE mice treated for 15 days, then immunized with OVA/CFA; format: in vivo, C57BL/6 mice
Method: Treatment stopped and mice were then injected with OVA/CFA (Complete Freund's Adjuvant).
Instead, the response to a new antigen that the mice are exposed to is enhanced.

EAE = EAE after cessation of 15 days of treatment, 45 additional days of monitoring; format: in vivo, C57BL/6 mice
From the text: The mice continued to be monitored daily for clinical signs of EAE for 45 additional days thereafter.

[4] = tested on: ongoing EAE in recipient mice; assay: Adoptive transfer of CD4+ T cells from treated EAE donors into recipients with ongoing EAE; format: in vivo
[5] = tested on: EAE in C57BL/6 Rag−/− recipients; assay: Adoptive transfer of CD4+ T cells from treated EAE donors into C57BL/6 Rag-/- recipients; format: in vivo, C57BL/6 Rag−/− mice
[6] = tested on: collagen-induced arthritis (CIA); details: cited from earlier work
[7] = mitogen-induced proliferation, delayed-type hypersensitivity, mixed lymphocyte reaction; cited from earlier work
[8] = mice; cited from earlier work
[9] = oral, 50 mg/kg, beginning at onset of disease

C[C@]12CC[C@H](O)CC1=CC[C@@H]1[C@@H]2CC[C@@]2(C)[C@H]1CC[C@@]21CO1 [BNN-50, 17β-spiro-[5-androsten-17,2′-oxiran]-3β-ol]
number of CD4+ IL-10-secreting T cells (Naive CD4+ T cells): significant increase
number of CD4+ IL-17-secreting T cells (Naive CD4+ T cells): increase
proliferation of the T cells that respond to the antigen [1]: significantly decreased
effect on T cell responses in general [1]: immunosuppressive effect
proliferation (naïve CD4+ T cells): increased
number of Foxp3+ Treg cells (naïve CD4+ T cells): significant increase

C[C@]12CC[C@H](O)CC1=CC[C@@H]1[C@@H]2CC[C@@]2(C)[C@H]1CC[C@@]21OC1CO (stereo partly drawn) [BNN-93, 3β,21-dihydroxy-17α,20-epoxy-5-pregnene]
recovery of recipients ([2]; DLN cell transfer, vs PBS-treated donors, FIG. 24): rapid recovery
mean maximum disease score ([2]; DLN cell transfer, vs PBS-treated donors, FIG. 25): significant reduction
EAE development in recipients ([2]; DLN cells of donors treated days 12-17, vs DLN cells from PBS-treated donors, FIG. 24): confer suppression
ex vivo proliferation to MOG35-55 ([2]; DLN cells of recipients, FIG. 26a): significantly decreased
levels of supernatant IFN-γ ([2]; DLN cells of recipients, FIG. 26b): decreased levels
levels of supernatant IL-17 ([2]; DLN cells of recipients, FIG. 26c): decreased levels
recruitment of CD11c+ dendritic cells ([2]; draining lymph nodes of recipients, FIG. 27a): substantially decreased
recruitment of IL-17 secreting T cells ([2]; draining lymph nodes of recipients, FIG. 27b): substantially decreased
recruitment of CD4+ Foxp3+ regulatory T cells ([2]; draining lymph nodes of recipients, FIG. 27c): increased
number of CD4+ IL-10-secreting T cells (Naive CD4+ T cells): significant increase
number of CD4+ IL-17-secreting T cells (Naive CD4+ T cells): increase
proliferation of the T cells that respond to the antigen [1]: significantly decreased
effect on T cell responses in general [1]: immunosuppressive effect
production of IFN-γ ([3]; after OVA/CFA immunization): increased
T cell response to OVA ex vivo (3H-Thymidine incorporation) ([3]; after OVA/CFA immunization, FIG. 40): substantially increased
EAE phenotype after end of treatment and OVA/CFA injection ([3]; in comparison to control mice): stable phenotype without any deterioration
protection from EAE ([3]; treated 15 days from shortly after disease onset, then OVA/CFA): clearly protected
protection from EAE development after cessation of treatment (EAE; treated 15 days from around day 13, monitored 45 additional days, FIGS. 34 and 35): remained protected
disease score after cessation of treatment (EAE; treated 15 days, monitored 45 additional days, vs control mice): remained unchanged
mean maximum EAE score ([4]; CD4+ T cell transfer into recipients with ongoing EAE, FIGS. 28 and 29): significant decrease
proliferation to MOG35-55 ex vivo ([4]; DLN cells and splenocytes of recipients, FIG. 30): significantly decreased
proliferation (naïve CD4+ T cells): increased
number of Foxp3+ Treg cells (naïve CD4+ T cells): significant increase
ex vivo proliferation to MOG35-55 ([5]; DLN cells of Rag−/− recipients, FIG. 33a): substantially decreased
production of IFN-γ ([5]; DLN cells of Rag−/− recipients, FIG. 33b): decreased production
production of IL-17 ([5]; DLN cells of Rag−/− recipients, FIG. 33c): decreased production
EAE scores induced in recipients ([5]; after pertussis toxin injections, FIGS. 31 and 32): no disease

C[C@]12CC[C@H](O)CC1=CCC1C2CC[C@@]2(C)C1CC[C@]21O[C@H]1CO (stereo partly drawn) [BNN-124, (20S)-3β,21-dihydroxy-17β,20-epoxy-5-pregnene]
number of CD4+ IL-10-secreting T cells (Naive CD4+ T cells): significant increase
number of CD4+ IL-17-secreting T cells (Naive CD4+ T cells): increase
proliferation of the T cells that respond to the antigen [1]: significantly decreased
effect on T cell responses in general [1]: immunosuppressive effect
proliferation (naïve CD4+ T cells): increased
number of Foxp3+ Treg cells (naïve CD4+ T cells): significant increase

C#C[C@]1(O)CC[C@H]2[C@@H]3[C@@H](O)C=C4C[C@@H](O)CC[C@]4(C)[C@H]3CC[C@@]21C [HE3286]
numbers and function of CD4+CD25+FOXp3+CD127-regulatory T cells (T reg) ([6]; associated with benefit): increases
CIA peak scores [6, 9]: significantly decreased
daily severity of arthritis scores [6, 9]: significantly decreased
immune suppression in classical models [7]: not found to be immune suppressive
oral bioavailability [8]: up to 25%
